The text below walks through data of ChEMBL document CHEMBL1131994, “Discovery of subtype-selective NMDA receptor ligands: 4-benzyl-1-piperidinylalkynylpyrroles, pyrazoles and imidazoles as NR1A/2B antagonists” (Bioorg Med Chem Lett, 1999).

The target of assay [1] is T1, Glutamate NMDA receptor; Grin1/Grin2b (Rattus norvegicus, UniProt P35439+Q00960). Kind of assay: Inhibition of NMDA response at NR1A/2B receptor expressed in Xenopus oocytes. Format: cell-based, Oocyte.
Target sequence in this assay (Q00960 whole entry, other chains not shown): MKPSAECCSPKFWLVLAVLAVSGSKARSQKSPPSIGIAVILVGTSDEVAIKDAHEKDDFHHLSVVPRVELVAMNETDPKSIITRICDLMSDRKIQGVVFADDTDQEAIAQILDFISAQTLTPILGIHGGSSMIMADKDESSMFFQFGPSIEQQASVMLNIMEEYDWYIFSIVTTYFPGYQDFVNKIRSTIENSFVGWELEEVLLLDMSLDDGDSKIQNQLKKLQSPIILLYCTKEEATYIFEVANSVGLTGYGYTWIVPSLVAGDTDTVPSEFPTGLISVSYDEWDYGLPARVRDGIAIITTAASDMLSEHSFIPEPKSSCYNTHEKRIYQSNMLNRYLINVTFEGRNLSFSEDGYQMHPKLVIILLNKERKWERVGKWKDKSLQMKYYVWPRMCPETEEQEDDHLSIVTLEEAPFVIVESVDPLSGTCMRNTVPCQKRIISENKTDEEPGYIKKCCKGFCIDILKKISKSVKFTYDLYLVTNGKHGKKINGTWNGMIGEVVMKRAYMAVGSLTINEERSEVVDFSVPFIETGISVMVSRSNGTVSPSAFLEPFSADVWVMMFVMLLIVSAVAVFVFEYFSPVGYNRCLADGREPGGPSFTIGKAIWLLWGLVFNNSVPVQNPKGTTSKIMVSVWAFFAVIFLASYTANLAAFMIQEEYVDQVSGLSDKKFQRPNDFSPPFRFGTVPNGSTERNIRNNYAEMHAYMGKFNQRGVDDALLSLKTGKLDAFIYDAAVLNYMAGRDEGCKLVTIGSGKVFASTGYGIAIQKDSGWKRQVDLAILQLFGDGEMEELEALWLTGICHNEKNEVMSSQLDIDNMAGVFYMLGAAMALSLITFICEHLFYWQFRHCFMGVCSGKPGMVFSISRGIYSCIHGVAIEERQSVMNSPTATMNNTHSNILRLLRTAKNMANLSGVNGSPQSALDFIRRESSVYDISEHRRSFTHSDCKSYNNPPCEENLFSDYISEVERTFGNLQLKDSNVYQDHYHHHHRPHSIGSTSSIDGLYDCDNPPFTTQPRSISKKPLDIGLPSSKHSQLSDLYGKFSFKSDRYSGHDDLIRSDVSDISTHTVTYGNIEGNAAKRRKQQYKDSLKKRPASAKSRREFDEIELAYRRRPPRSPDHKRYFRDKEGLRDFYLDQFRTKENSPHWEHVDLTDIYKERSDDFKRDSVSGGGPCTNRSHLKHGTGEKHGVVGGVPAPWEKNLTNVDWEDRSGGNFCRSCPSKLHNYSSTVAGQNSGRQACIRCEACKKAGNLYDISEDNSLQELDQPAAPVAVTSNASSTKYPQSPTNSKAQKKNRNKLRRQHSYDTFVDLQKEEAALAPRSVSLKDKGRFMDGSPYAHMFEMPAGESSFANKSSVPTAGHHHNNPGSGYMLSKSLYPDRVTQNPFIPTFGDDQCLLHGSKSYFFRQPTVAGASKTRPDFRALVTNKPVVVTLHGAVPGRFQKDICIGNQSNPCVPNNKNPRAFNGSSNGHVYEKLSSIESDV
The target in assay [2] is Glutamate NMDA receptor; Grin1/Grin2a (Rattus norvegicus, UniProt P35439+Q00959). Kind of assay: Compound was tested in vitro for inhibition of NMDA response at cloned NR1A/2A receptor expressed in Xenopus oocytes. It counts as cell-based, frog, Oocyte.
Assay [3] addresses T2, Glutamate receptor ionotropic, NMDA 2C (Rattus norvegicus, UniProt P35439+Q00961). Put plainly: Compound was tested in vitro for inhibition of NMDA response at cloned NR1A/2C receptor expressed in Xenopus oocytes. Format: cell-based, frog, Oocyte.
Assay [4] concerns Rattus norvegicus. Put plainly: Compound was tested in vivo for potentiation of L-DOPA effect in 6-hydroxydopamine-lesioned rat when administered per orally. Format: functional. Particulars: po, read-out: MED.
Assay [5] deals with T2, Glutamate receptor ionotropic, NMDA 2C. Kind of assay: The compound was tested in vitro for activity against NR1A/2C sub type of NMDA receptor. Also noted: species or system frog.
The target in assay [6] is T1, Glutamate NMDA receptor; Grin1/Grin2b. Put plainly: The compound was tested in vitro for activity against NR1A/2B sub type of NMDA receptor. The arrangement: species or system frog.

T2 sequence (Q00961 whole entry, one chain of several): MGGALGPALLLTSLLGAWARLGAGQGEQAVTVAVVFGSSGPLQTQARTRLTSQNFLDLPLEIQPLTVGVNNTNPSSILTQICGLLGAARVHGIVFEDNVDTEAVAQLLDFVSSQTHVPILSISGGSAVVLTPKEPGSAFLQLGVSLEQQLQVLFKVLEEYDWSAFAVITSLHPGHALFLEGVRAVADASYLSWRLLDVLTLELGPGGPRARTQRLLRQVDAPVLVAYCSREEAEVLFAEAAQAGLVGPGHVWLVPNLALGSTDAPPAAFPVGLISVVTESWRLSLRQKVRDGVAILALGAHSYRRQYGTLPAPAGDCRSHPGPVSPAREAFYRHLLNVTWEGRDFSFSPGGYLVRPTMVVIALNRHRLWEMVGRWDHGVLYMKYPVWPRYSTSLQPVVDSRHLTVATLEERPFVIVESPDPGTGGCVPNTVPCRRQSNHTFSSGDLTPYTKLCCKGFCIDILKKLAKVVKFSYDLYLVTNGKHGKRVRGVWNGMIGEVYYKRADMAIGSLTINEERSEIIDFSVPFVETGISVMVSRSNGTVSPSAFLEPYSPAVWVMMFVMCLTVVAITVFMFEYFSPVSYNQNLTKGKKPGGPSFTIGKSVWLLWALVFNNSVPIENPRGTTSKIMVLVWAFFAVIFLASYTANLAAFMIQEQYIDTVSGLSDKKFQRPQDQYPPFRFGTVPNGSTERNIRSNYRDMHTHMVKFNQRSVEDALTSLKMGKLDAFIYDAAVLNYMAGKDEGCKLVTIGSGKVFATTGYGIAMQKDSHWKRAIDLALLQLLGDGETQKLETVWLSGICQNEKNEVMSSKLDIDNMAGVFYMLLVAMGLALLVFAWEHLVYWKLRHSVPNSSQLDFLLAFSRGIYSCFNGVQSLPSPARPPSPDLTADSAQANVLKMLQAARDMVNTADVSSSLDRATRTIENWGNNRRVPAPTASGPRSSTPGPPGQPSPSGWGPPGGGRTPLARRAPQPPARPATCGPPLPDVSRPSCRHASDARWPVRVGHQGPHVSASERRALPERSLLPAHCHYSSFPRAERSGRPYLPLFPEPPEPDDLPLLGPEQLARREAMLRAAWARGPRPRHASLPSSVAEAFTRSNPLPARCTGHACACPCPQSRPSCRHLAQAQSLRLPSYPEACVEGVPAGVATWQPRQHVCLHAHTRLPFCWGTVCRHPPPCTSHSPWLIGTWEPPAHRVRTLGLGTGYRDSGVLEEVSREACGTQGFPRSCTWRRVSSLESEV
Sequence of Glutamate NMDA receptor; Grin1/Grin2a (Q00959 whole entry, looked up, other chains not shown): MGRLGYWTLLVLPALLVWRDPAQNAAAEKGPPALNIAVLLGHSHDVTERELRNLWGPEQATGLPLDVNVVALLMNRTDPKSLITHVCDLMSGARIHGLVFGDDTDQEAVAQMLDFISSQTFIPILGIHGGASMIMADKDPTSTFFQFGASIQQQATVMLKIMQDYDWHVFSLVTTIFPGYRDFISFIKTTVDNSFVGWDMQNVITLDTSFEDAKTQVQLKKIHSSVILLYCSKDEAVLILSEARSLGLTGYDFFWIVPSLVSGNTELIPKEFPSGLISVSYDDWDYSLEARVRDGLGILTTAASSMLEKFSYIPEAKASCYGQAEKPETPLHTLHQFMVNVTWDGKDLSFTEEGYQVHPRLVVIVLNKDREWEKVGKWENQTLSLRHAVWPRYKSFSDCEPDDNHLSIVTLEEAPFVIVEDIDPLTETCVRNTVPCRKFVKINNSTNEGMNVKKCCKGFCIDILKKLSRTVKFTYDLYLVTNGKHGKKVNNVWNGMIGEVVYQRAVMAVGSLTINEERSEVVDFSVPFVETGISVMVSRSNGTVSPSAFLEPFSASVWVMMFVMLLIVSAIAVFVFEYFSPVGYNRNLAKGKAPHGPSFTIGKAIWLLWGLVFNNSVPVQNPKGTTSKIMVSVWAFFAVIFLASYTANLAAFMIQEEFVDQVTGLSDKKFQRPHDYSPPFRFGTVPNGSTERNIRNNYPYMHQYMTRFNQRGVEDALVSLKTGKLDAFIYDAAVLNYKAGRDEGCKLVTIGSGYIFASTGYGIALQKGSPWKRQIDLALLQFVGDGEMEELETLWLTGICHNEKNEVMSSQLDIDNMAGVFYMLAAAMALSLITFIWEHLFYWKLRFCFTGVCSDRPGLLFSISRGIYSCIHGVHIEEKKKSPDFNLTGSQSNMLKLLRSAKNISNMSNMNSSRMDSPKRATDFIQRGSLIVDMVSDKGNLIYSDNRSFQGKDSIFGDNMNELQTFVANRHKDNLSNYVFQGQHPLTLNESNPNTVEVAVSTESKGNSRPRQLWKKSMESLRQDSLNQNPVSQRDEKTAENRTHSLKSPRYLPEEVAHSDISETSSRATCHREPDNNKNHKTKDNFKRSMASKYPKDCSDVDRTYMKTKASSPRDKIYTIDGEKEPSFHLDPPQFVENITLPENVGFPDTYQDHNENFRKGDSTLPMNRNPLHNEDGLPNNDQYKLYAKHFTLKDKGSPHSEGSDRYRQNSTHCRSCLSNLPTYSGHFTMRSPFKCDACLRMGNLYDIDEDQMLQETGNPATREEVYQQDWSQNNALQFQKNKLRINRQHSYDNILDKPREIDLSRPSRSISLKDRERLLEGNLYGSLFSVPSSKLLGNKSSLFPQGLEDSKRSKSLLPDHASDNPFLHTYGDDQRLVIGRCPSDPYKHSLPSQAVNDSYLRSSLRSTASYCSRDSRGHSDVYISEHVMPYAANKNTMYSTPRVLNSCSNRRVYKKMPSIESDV

A word on the IC50: it is the concentration that gives 50% inhibition. Read a high IC50 as lower potency. Regarding `Clc1ccc(CC2CCN(CCC#Cc3cnc[nH]3)CC2)cc1`, the IC50 worked out at 0.028 µM in assay [1], 26 µM in assay [2] and 80 µM in assay [3]. For the same compound, the minimal effective dose in assay [4] was found to be 10 mg/kg.

As to `C(#Cc1cn[nH]c1)CCN1CCC(Cc2ccccc2)CC1`, the figures for the IC50 in assay [1], in assay [2] and in assay [3] were 0.074 µM, 67 µM and above 100 µM, respectively. Moreover, in assay [4], the minimal effective dose was determined as 30 mg/kg.

In the case of `C(#Cc1cc[nH]c1)CCN1CCC(Cc2ccccc2)CC1`, the 50% inhibitory concentration (IC50) in assay [1] was 0.19 µM; in assay [2] it was 51 µM; in assay [3], above 100 µM. The minimal effective dose in assay [4] was 30 mg/kg.

Regarding `Fc1ccc(CC2CCN(CCC#Cc3c[nH]cn3)CC2)cc1`, the IC50 in assay [1] was 0.05 µM; in assay [2], 40 µM; in assay [3], above 100 µM. The minimal effective dose in assay [4] was above 10 mg/kg.

As for `C(#Cc1cc[nH]c1)CN1CCC(Cc2ccccc2)CC1`, the IC50 stood at 1.1 µM in assay [1], 53 µM in assay [2] and 56 µM in assay [3].

For the compound `OC1(Cc2ccccc2)CCN(CCC#Cc2c[nH]cn2)CC1`, the IC50 is 0.22 µM in assay [1], above 100 µM in assay [2] and above 100 µM in assay [3]. Further, the minimal effective dose in assay [4] was above 10 mg/kg.

For `C(#Cc1cnc[nH]1)CCN1CCC(Cc2ccccc2)CC1`, the IC50 in assay [1] came to 0.037 µM; in assay [2], 53 µM; in assay [3], 70 µM. Besides, the minimal effective dose in assay [4] amounted to 3 mg/kg.

On to `C(#Cc1cnc[nH]1)CCN1CCC(c2ccccc2)CC1`, for which the IC50 in assay [1] was found to be 0.81 µM; in assay [2] it was 1.4 µM; in assay [3] it was 5 µM.

Regarding `C(#Cc1cnc[nH]1)CN1CCC(Cc2ccccc2)CC1`, the IC50 came to 0.12 µM in assay [1], 38 µM in assay [2] and 34 µM in assay [3]. The minimal effective dose in assay [4] was determined as 10 mg/kg.

Take `Cc1ccc(CC2CCN(CCC#Cc3c[nH]cn3)CC2)cc1`: the figures for the IC50 in assay [1], in assay [2] and in assay [3] were 0.02 µM, 16 µM and 38 µM, respectively. Besides, in assay [4], the minimal effective dose was determined as 10 mg/kg.

As to `C(#Cc1cn[nH]c1)CN1CCC(Cc2ccccc2)CC1`, the IC50 in assay [5] was above 100 µM; in assay [2] it was above 100 µM; in assay [6], 0.82 µM.

Regarding `OC1(c2ccccc2)CCN(CCC#Cc2c[nH]cn2)CC1`, the IC50 in assay [1] amounted to 3.5 µM; in assay [2] it was 8.4 µM; in assay [3] it was 36 µM.
